Assay results from patent US10294202B2, “Pyrrolidinones as herbicides” (FMC Corporation, priority 2013, dated 2019).

Experiments:
barnyardgrass [1] = assay: Test A pre-/postemergence herbicide test; assay type: in vivo, Echinochloa crus-galli; conditions: for Plant response rating, Barnyardgrass: 0 to 100 scale
Procedure, shortened: (§1)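 Formulated compound (non-phytotoxic solvent, surfactant) sprayed pre- onto soil of seeded loam/sand pots or post- onto seedlings at 1–2 leaves; ~10 d greenhouse; 0–100 visual control rating versus untreated.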

kochia = assay: Test A pre-/postemergence herbicide test; assay type: in vivo, Kochia scoparia; conditions: for Plant response rating, Kochia: 0 to 100 scale
Procedure, shortened: as §1

ragweed = assay: Test A pre-/postemergence herbicide test; assay type: in vivo, Ambrosia elatior; conditions: for Plant response rating, Ragweed: 0 to 100 scale
Procedure, shortened: as §1

ryegrass, Italian = assay: Test A pre-/postemergence herbicide test; assay type: in vivo, Lolium multiflorum; conditions: for Plant response rating, Ryegrass, Italian: 0 to 100 scale
Procedure, shortened: as §1

giant foxtail = assay: Test A pre-/postemergence herbicide test; assay type: in vivo, Setaria faberii; conditions: for Plant response rating, Foxtail, Giant: 0 to 100 scale
Procedure, shortened: as §1

pigweed = assay: Test A pre-/postemergence herbicide test; assay type: in vivo, Amaranthus retroflexus; conditions: for Plant response rating, Pigweed: 0 to 100 scale
Procedure, shortened: as §1

wheat = assay: Test A pre-/postemergence herbicide test; assay type: in vivo, Triticum aestivum; conditions: Postemergence
Procedure, shortened: as §1

corn = assay: Test A pre-/postemergence herbicide test; assay type: in vivo, Zea mays; conditions: Postemergence
Procedure, shortened: as §1

blackgrass = assay: Test A postemergence herbicide test; assay type: in vivo, Alopecurus myosuroides
Procedure, shortened: (§2)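 Potted in loam soil/sand blend; postemergence application at 1–2 leaf stage (2–10 cm). Greenhouse ~10 d. Visual injury vs untreated, 0–100 scale; 100 = complete control.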

galium = assay: Test A postemergence herbicide test; assay type: in vivo, Galium aparine
Procedure, shortened: as §2

rice = assay: Test C flooded paddy test; assay type: in vivo, Oryza sativa; conditions: Flood
Procedure, shortened: (§3)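 Plants at the 2-leaf stage in pots flooded to 3 cm were treated by applying compound directly to the paddy water, with depth held throughout. After 13 to 15 days in a greenhouse, response was rated visually against controls on a 0 (no effect) to 100 (complete control) scale.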

sedge, umbrella = assay: Test C flooded paddy test; assay type: in vivo, Cyperus difformis; conditions: Flood
Procedure, shortened: as §3

ducksalad = assay: Test C flooded paddy test; assay type: in vivo, Heteranthera limosa; conditions: Flood
Procedure, shortened: as §3

barnyardgrass [2] = assay: Test C flooded paddy test; assay type: in vivo, Echinochloa crus-galli; conditions: Flood
Procedure, shortened: as §3

[3] = 125 g ai/ha, visual rating, 0 no effect, 100 complete control, approximately 10 days, preemergence
[4] = Postemergence, 125 g ai/ha, 0 is no effect, 100 is complete control
[5] = preemergence, 500 g ai/ha, 0 is no effect and 100 is complete control
[6] = 125 g ai/ha, 0 to 100 scale, 0 is no effect, 100 is complete control
[7] = 125 g ai/ha, scale of 0 to 100 where 0 is no effect and 100 is complete control, 13 to 15 days
[8] = 250 g ai/ha, scale of 0 to 100 where 0 is no effect and 100 is complete control, 13 to 15 days

Question: What does the source list for `O=C1NCC(c2cccc(C(F)F)c2)C1C(=O)Nc1ccccc1C(F)(F)F` (racemic) [Compound 212]?
Answer: Plant response rating, Barnyardgrass (barnyardgrass [1]; [3]): 60; Plant response rating, Barnyardgrass (barnyardgrass [1]; [4]): 60; Barnyardgrass plant response rating (0 to 100 scale, 0 is no effect, 100 is complete control) (barnyardgrass [1]; Postemergence, 500 g ai/ha): 90; Plant response rating, Barnyardgrass (barnyardgrass [1]; [5]): 90; Plant response rating, Kochia (kochia; [3]): 0; Plant response rating, Kochia (kochia; [4]): 0; Kochia plant response rating (0 to 100 scale, 0 is no effect, 100 is complete control) (kochia; Postemergence, 500 g ai/ha): 20; Plant response rating, Kochia (kochia; [5]): 20; Plant response rating, Ragweed (ragweed; [3]): 0; Plant response rating, Ragweed (ragweed; [4]): 0; Ragweed plant response rating (0 to 100 scale, 0 is no effect, 100 is complete control) (ragweed; Postemergence, 500 g ai/ha): 20; Plant response rating, Ragweed (ragweed; [5]): 50; Plant response rating, Ryegrass, Italian (ryegrass, Italian; [3]): 0; Plant response rating, Ryegrass, Italian (ryegrass, Italian; [4]): 0; Ryegrass, Italian plant response rating (0 to 100 scale, 0 is no effect, 100 is complete control) (ryegrass, Italian; Postemergence, 500 g ai/ha): 0; Plant response rating, Ryegrass, Italian (ryegrass, Italian; [5]): 30; Plant response rating, Foxtail, Giant (giant foxtail; [3]): 70; Plant response rating, Foxtail, Giant (giant foxtail; [4]): 60; Foxtail, Giant plant response rating (0 to 100 scale, 0 is no effect, 100 is complete control) (giant foxtail; Postemergence, 500 g ai/ha): 90; Plant response rating, Foxtail, Giant (giant foxtail; [5]): 90; Plant response rating, Pigweed (pigweed; [3]): 0; Plant response rating, Pigweed (pigweed; [4]): 0; Pigweed plant response rating (0 to 100 scale, 0 is no effect, 100 is complete control) (pigweed; Postemergence, 500 g ai/ha): 0; Plant response rating, Pigweed (pigweed; [5]): 0; Plant response rating, Wheat (wheat; [6]): 0; Wheat plant response rating (0 to 100 scale, 0 is no effect, 100 is complete control) (wheat; 500 g ai/ha): 70; Plant response rating, Corn (corn; [6]): 0; Corn plant response rating (0 to 100 scale, 0 is no effect, 100 is complete control) (corn; 500 g ai/ha): 50; Plant response rating, Blackgrass (blackgrass; [6]): 40; Blackgrass plant response rating (0 to 100 scale, 0 is no effect, 100 is complete control) (blackgrass; 500 g ai/ha): 60; Plant response rating, Galium (galium; [6]): 50; Galium plant response rating (0 to 100 scale, 0 is no effect, 100 is complete control) (galium; 500 g ai/ha): 60; Plant response rating, Rice (rice; [7]): 0; Plant response rating, Rice (rice; [8]): 0; Plant response rating, Rice (rice; 500 g ai/ha, scale 0 to 100): 0; Plant response rating, Rice (rice; 1000 g ai/ha, scale 0 to 100): 0; Plant response rating, Sedge, Umbrella (sedge, umbrella; [7]): 0; Plant response rating, Sedge, Umbrella (sedge, umbrella; [8]): 0; Plant response rating, Sedge, Umbrella (sedge, umbrella; 500 g ai/ha, scale 0 to 100): 0; Plant response rating, Sedge, Umbrella (sedge, umbrella; 1000 g ai/ha, scale 0 to 100): 0; Plant response rating, Ducksalad (ducksalad; [7]): 0; Plant response rating, Ducksalad (ducksalad; [8]): 70; Plant response rating, Ducksalad (ducksalad; 500 g ai/ha, scale 0 to 100): 75; Plant response rating, Ducksalad (ducksalad; 1000 g ai/ha, scale 0 to 100): 100; Plant response rating, Barnyardgrass (barnyardgrass [2]; [7]): 0; Plant response rating, Barnyardgrass (barnyardgrass [2]; [8]): 15; Plant response rating, Barnyardgrass (barnyardgrass [2]; 500 g ai/ha, scale 0 to 100): 40; Plant response rating, Barnyardgrass (barnyardgrass [2]; 1000 g ai/ha, scale 0 to 100): 65
